Structures are written as SMILES. Active and inactive are the calls of the source. The calls are words filed in the database; no cut-off is given here.

Consider 1 molecule from ChEMBL document CHEMBL3872257, “Multitarget drug design strategy against Alzheimer's disease: Homoisoflavonoid Mannich base derivatives serve as acetylcholinesterase and monoamine oxidase B dual inhibitors with multifunctional properties” (Bioorg Med Chem, 2017).

Data set [1] can be described thus: Cytotoxicity against rat PC12 cells assessed as cell viability at 100 uM measured after 48 hrs by MTT assay relative to control. In kind it is toxicity, PC-12. Particulars: read-out: Activity. Background: Tetrazolium dyes change colour on reduction, which living cells bring about.
The species named for another data set is Rattus norvegicus. The experiment in a line: Cytotoxicity against rat PC12 cells assessed as effect on cell viability at 1 to 10 uM measured after 48 hrs by MTT assay. In kind it is toxicity, cell-based. The note with it: pc-12, 48 h.
Data set [2] deals with Amyloid-beta precursor protein (Homo sapiens) (UniProt P05067). Description: Inhibition of self-mediated aggregation of amyloid beta (1 to 42 residues) (unknown origin) at 25 uM incubated for 24 hrs by Thioflavin T fluorescence assay relative to control.
Chain of Amyloid-beta precursor protein (Homo sapiens) (P05067 whole entry, the tested form may be a part): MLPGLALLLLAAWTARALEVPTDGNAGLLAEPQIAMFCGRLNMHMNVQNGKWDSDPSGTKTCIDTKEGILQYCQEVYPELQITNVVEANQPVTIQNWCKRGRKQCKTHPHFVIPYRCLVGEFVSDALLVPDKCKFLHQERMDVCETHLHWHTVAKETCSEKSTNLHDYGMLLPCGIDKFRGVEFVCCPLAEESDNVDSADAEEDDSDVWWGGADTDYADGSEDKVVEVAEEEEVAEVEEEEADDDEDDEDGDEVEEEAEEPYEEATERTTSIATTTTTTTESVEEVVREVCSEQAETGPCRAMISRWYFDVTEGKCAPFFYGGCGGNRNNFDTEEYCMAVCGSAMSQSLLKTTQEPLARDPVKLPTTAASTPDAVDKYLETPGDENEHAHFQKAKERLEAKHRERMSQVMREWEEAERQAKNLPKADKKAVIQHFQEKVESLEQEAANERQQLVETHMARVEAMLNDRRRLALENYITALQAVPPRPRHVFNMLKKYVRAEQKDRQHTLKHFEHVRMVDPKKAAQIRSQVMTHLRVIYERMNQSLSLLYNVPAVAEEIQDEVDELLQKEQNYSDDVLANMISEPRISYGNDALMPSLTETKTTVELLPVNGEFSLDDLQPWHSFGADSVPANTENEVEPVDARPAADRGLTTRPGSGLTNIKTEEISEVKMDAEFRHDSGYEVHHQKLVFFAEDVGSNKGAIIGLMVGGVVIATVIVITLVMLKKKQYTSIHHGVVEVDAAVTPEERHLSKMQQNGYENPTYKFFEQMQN
For a further data set, the species on record is Homo sapiens. Description: Selectivity index, ratio of IC50 for human recombinant MAO-A to IC50 for human recombinant MAO-B.
The target in data set [3] is Acetylcholinesterase (Electrophorus electricus) (UniProt O42275). The experiment in a line: Mixed-type inhibition of […] AChE preincubated for 15 mins followed by addition of acetylthiocholine iodide as substrate in varying concentrations by Lineweaver-Burk reciprocal plot analysis.
Chain of Acetylcholinesterase (Electrophorus electricus) (O42275 24-633 limits assumed): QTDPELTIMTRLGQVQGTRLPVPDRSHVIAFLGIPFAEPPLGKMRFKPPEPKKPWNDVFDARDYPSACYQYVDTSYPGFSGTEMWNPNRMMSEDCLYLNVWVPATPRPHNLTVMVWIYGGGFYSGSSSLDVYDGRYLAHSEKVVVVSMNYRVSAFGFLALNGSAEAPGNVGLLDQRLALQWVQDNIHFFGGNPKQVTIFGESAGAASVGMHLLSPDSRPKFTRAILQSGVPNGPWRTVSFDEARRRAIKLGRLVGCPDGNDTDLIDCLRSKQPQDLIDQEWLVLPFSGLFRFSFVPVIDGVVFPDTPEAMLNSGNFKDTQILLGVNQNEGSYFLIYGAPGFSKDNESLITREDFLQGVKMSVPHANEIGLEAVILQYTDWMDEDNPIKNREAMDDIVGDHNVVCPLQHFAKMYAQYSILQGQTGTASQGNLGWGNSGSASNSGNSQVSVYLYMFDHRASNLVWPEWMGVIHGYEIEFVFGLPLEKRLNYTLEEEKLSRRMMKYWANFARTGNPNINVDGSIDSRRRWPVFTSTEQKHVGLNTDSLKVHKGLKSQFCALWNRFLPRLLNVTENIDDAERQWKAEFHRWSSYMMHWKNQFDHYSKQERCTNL
Data set [4] deals with T1, Amine oxidase [flavin-containing] A (Homo sapiens, UniProt P21397).
T1 sequence (P21397 whole entry): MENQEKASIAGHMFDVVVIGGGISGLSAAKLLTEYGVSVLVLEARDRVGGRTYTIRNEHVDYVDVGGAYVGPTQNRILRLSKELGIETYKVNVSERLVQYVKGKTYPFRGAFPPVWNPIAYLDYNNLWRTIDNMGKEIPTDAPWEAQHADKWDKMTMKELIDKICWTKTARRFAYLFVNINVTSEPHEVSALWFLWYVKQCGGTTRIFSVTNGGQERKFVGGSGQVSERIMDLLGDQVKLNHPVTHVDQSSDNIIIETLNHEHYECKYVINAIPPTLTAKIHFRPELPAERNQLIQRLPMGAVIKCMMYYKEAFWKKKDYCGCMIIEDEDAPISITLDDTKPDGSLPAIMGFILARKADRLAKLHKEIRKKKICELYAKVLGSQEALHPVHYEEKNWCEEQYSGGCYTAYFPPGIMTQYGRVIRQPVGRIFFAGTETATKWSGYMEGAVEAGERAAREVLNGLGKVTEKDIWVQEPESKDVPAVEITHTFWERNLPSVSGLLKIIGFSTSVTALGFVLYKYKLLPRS
The experiment in a line: Inhibition of human recombinant MAO-A using kynuramine as substrate at 20 uM measured after 30 mins by fluorescence assay relative to control. Particulars: 0.5 h.

Data set [5] can be described thus: Inhibition of copper-mediated aggregation of amyloid beta (1 to 42 residues) (unknown origin) at 25 uM incubated for 24 hrs by thioflavin-T fluorescence assay relative to control. In kind it is physicochemical.
Data set [6] can be described thus: Metal chelating activity assessed as aluminium-compound complex formation at 37.5 uM in presence of AlCl3 measured after 30 mins by UV-vis spectrometry. The data set is classed as physicochemical. Particulars: 0.5 h.
For data set [7], the target named is Butyrylcholinesterase (Rattus norvegicus) (UniProt Q9JKC1). The experiment in a line: Inhibition of rat serum BuChE at 50 uM measured after 15 mins by Ellman's method relative to control. For orientation: DTNB colorimetry detects thiols as they appear.
Chain of Butyrylcholinesterase (Rattus norvegicus) (Q9JKC1 as listed by the source): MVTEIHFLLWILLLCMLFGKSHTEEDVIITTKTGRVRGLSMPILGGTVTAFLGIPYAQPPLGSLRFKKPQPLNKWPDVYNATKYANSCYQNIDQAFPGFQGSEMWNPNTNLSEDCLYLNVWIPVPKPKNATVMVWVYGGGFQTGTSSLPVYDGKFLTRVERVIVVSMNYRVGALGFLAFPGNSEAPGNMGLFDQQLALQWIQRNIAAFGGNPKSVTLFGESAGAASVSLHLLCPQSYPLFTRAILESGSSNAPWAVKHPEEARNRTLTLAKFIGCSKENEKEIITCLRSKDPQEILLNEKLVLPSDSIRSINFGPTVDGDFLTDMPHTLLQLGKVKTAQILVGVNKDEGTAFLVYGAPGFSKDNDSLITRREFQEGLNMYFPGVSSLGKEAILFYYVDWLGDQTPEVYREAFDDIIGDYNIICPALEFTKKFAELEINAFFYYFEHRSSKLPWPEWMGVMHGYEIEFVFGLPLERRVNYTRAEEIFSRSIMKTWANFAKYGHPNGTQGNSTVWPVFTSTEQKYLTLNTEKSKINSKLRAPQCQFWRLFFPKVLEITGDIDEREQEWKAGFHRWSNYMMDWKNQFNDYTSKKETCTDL
In data set [8] the target is T2, Amine oxidase [flavin-containing] B (Homo sapiens, UniProt P27338).
T2 sequence (P27338 whole entry): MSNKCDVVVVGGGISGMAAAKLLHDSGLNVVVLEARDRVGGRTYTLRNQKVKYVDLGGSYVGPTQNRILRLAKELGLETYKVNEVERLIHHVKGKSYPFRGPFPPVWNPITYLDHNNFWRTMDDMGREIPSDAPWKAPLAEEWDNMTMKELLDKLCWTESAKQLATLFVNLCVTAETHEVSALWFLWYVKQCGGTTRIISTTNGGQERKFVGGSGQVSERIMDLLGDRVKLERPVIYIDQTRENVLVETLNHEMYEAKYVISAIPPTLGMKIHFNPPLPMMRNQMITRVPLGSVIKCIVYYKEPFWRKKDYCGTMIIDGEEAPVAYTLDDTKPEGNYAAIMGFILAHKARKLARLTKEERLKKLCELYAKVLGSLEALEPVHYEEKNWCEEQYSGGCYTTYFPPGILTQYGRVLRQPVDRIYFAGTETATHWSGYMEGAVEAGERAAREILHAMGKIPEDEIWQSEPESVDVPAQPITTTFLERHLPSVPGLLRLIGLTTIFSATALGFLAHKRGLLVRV
Description: Inhibition of human recombinant MAO-B using kynuramine as substrate measured after 30 mins by fluorescence assay

The nature of data set [9]: Metal chelating activity assessed as iron-compound complex formation at 37.5 uM in presence of FeSO4 measured after 30 mins by UV-vis spectrometry. In kind it is physicochemical. Particulars: 0.5 h.
The target of a further data set is Acetylcholinesterase (Electrophorus electricus, UniProt O42275). Description: Inhibition of Electrophorus electricus AChE using acetylthiocholine iodide as substrate measured after 15 mins by Ellman's method.
Chain of Acetylcholinesterase (O42275 whole entry): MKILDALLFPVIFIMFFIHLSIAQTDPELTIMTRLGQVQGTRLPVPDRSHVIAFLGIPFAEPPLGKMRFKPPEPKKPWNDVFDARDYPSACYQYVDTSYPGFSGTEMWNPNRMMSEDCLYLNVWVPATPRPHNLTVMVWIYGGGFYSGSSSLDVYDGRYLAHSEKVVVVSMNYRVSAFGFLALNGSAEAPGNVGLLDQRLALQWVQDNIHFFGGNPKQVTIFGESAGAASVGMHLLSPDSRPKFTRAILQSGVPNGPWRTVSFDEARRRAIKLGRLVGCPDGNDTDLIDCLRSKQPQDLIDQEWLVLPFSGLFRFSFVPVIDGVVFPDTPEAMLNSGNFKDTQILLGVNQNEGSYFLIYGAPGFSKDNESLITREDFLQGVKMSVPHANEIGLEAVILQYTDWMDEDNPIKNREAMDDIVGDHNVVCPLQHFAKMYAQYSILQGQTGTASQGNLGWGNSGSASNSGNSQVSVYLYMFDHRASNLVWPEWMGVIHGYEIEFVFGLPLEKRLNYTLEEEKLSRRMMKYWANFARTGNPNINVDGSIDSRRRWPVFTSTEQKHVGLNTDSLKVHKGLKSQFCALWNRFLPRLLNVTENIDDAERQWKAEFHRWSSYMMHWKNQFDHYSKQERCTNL
Data set [10] in a line: Antioxidant activity assessed as trolox equivalent of […]-induced radical scavenging activity preincubated for 15 mins followed by AAPH addition measured every minute for 120 mins by ORAC fluorescein assay. The data set is classed as functional.
Data set [11] in a line: Permeability of the compound at 100 ug/ml after 18 hrs by PAMPA assay. The data set is classed as ADME. Particulars: read-out: permeability. In general terms: In PAMPA a lipid-coated filter parts donor from acceptor wells.
Data set [12] can be described thus: Metal chelating activity assessed as copper-compound complex formation at 37.5 uM in presence of CuCl2 measured after 30 mins by UV-vis spectrometry. In kind it is physicochemical. The note with it: 0.5 h.

As for `COc1cc2c(cc1OC)C(=O)/C(=C/c1ccc(CN3CCCCC3)c(O)c1)CO2`, in data set [1], the viability at 48 h, 100 µM was determined as 63.4%. Also, the Activity result in the data set filed under Rattus norvegicus is “Non-Toxic”; in data set [6], “Active”; in [9], “Active”; in [10], 2.25 equiv; in data set [12] it was “Active”. The inhibition (commonly the drop in the measured response relative to a control, in per cent) was 39.3% in [2], 24.6% in [4] and 19.8% in data set [7]. Further, the Ratio IC50 in the data set listed under Homo sapiens was more than 11.5. In addition, in data set [3], the inhibition result is “Active”. In data set [5], the “inhibition (INH)” value is recorded as 47%. Moreover, the IC50 – broadly, the midpoint of a concentration-inhibition curve – was 1740 nM in data set [8] and 2.49 nM at Acetylcholinesterase. In addition, in data set [11], the Papp at 18 h, 100 ug/ml was found to be 10.4 ×10⁻⁶ cm/s.
